Assay results: patent US11642413B2, “Compounds for degrading Tau protein aggregates and uses thereof” (Aprinoia Therapeutics Limited, priority 2019, dated 2023)

What was measured:
[1] = target: heparin-induced aggregated Tau (aTau) (Homo sapiens (Human), UniProt P10636); assay: PBB5 competition assay; type: binding; settings: for Bmax: competition assay with PBB5; for IC50: 0.12 μM aTau, 0.1 μM PBB5, 37° C., 1 hour
Procedure: 1 mM IPTG (Sangon Biotech, Cat. No A100487) was used to induce production of tau by bacteria (BL21, Invitrogen, Cat. No C600003) transformed with a full-length 2N4R tau expression plasmid. After 3 hours, cell pellet was resuspended in lysis buffer (100 mM PIPES, 1 mM EGTA, 1 mM MgSO4, pH 6.8) and lysed by sonication followed by centrifugation (15,000 rpm, 15 min, 4° C.). The supernatant was then placed in a boiling water bath for 20 min, followed by centrifugation (15,000 rpm, 15 min, 4° C.). Supernatant was loaded onto a Q-Sepharose® Fast Flow column (GE healthcare, Cat. No 17-0510-01), the flow-through fraction was loaded onto an SP-Sepharose® Fast Flow column (GE healthcare, Cat. No 17-0729-01), and tau protein was eluted with elution buffer (100 mM PIPES, 1 M NaCl, 1 mM EGTA, 1 mM MgSO4, 0.2 M NaCl, pH 6.8). Collected fractions of tau-containing eluates were pooled, concentrated and dialyzed against HEPES buffer (25 mM HEPES, 0.1 mM EDTA, 0.5 mM DTT, 100 mM NaCl, pH 7.2) and stored at −80° C. in small aliquots until use. Protein concentration was determined by UV absorption.
2 μM of tau prepared in 30 mM Tris-HCl, pH 7.5 buffer was incubated in tube with 15 μM heparin (Sigma, Cat. No H3149) at 37° C. for 24 hours.
2 μM of aTau was diluted to 0.12 μM by […] (pH 6.8) and then incubated with 0.1 μM 2-(4-(2-(methylamino)pyridine-5-yl)-1,3-butadiene-1-yl)benzothiazole-6-ol (PBB5) and serially diluted compound (three-fold serial dilution, from 10 to 0.00017 μM) in a 96-well plate (Corning, Cat. No 3573) at 37° C. for 1 hour. Fluorescence intensity (excitation/emission=530/690 nm) of PBB5 was read by microplate spectrometer (EnSpire 2300, PerkinElmer). Percentage of competition was calculated using the following equation: (Max−well of compound alone)/(Max−Min)*100%, where Max=(Tau+PBB5) signals−(buffer+PBB5) signals; and Min=(buffer+PBB5) signals−(buffer+PBB5) signals.
The IC50 value of each compound was calculated with GraphPad Prism software using the “4 Parameter Logistic Model or Sigmoidal Dose-Response Model”: Y=Bottom+(Top−Bottom)/(1+(IC50/X)^HillSlope)

[2] = target: heparin-induced aggregated Tau (aTau), full-length 2N4R tau (Homo sapiens (Human), UniProt P10636); assay: In vitro fluorometric aTau binding assay; settings: 0.04 μM aTau, 37° C., 1 hour, fluorescence intensity
heparin-induced aggregated Tau (aTau), full-length 2N4R tau, sequence (P10636 other isoform, or with tags, fused parts or gaps): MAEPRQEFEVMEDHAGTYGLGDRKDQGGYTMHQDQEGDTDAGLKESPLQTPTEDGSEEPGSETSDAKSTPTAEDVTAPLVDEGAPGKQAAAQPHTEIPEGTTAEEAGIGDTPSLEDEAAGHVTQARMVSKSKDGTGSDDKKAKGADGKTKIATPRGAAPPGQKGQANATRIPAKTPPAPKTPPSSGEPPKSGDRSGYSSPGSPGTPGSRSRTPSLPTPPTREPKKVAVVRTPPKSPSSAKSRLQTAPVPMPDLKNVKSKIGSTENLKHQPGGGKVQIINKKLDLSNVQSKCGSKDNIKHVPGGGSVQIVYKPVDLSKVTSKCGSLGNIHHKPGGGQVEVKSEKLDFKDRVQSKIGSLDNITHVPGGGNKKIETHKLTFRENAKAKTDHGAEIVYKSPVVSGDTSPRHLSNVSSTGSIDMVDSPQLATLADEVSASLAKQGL
Procedure: 1 mM IPTG (Sangon Biotech, Cat. No A100487) was used to induce production of tau by bacteria (BL21, Invitrogen, Cat. No C600003) transformed with a full-length 2N4R tau expression plasmid. After 3 hours, cell pellet was resuspended in lysis buffer (100 mM PIPES, 1 mM EGTA, 1 mM MgSO4, pH 6.8) and lysed by sonication followed by centrifugation (15,000 rpm, 15 min, 4° C.). The supernatant was then placed in a boiling water bath for 20 min, followed by centrifugation (15,000 rpm, 15 min, 4° C.). […] Protein concentration was determined by UV absorption. […]
2 μM aTau was diluted to 0.04 μM with 30 mM Tris-HCl (pH 6.8), and then incubated with serially diluted compound (three-fold serial dilutions, from 10 to 0.00017 μM) in a 96-well plate (Corning, Cat. No 3573) at 37° C. for 1 hour. Fluorescence intensity (excitation/emission=370/500 nm) of APN-0729 was read by microplate spectrometer (EnSpire 2300, PerkinElmer). Compound Kd values were calculated using the following equation: Y=Bmax*X/(Kd+X), where X is the concentration of compound; Y is the fluorescence signal of (compound+aTau)−(compound+DMSO); and Bmax is the maximum signal.

[3] = In vivo pharmacokinetic study of plasma and brain tissue; settings: mice, 1 mg/kg, intravenous
Procedure: To determine whether the compounds of the present disclosure are capable of crossing the blood brain barrier (BBB), example compound 160313 was administered to mice in a pharmacokinetic study (1 mg/kg, intravenous) of plasma and brain tissue.
Animal Husbandry: Mice were housed at animal room environment with ventilation 15 times/hour, lighting 12 hours/day, temperature 20° C. to 24° C. and humidity 40% to 70%. The study rooms were disinfected and cleaned prior to the start of the study and the operation area was cleaned after each dosing or sampling during the study conduct. All animals had free access to food and water during the study. The animals had access to Certified Rodent Diet and water ad libitum. The nutritional composition and levels of contaminants of the diet and impurities and contaminants of the water were monitored by third organization. The health status of the animals was evaluated in accordance with accepted animal husbandry procedures and deemed suitable for experimental use.
Sample Collection & Processing: Approximately 110 μL of whole blood were collected from all animals via facial or cardiac puncture under anesthesia with Isoflurane into test tubes containing potassium ethylenediaminetetraacetate (K2EDTA) at 0.25, 0.5, 1, 2, 4, 8 and 24 hr post dose. Brian samples were collected at 0.25, 0.5, 1, 2, 4, 8 and 24 hours post dose. A perfusion with pre-cold saline will be conducted via cardiac puncture before brain collection. Blood samples were centrifuged at 2000 g at 4° C. for 5 minutes to obtain plasma samples by transferring the supernatants into new tubes. All plasma and brain samples were stored at approximately −70° C. until analysis.
Bioanalytical Method Development: The concentrations of compound in plasma and brain samples were determined using a liquid chromatography with tandem mass spectrometry (LC-MS/MS) based method.

heparin-induced aggregated Tau (aTau), sequence (P10636 other isoform, or with tags, fused parts or gaps): as above

Structure (SMILES): CN(C)c1ccc2nc(-c3ccc(-c4ccc(NCCOCCOCCOCCOCCOCCOc5ccc6c(c5)CN(C5CCC(=O)NC5=O)C6=O)nc4)cc3)sc2c1 (stereo not drawn) [Compound 160383, 3-[6-[2-[2-[2-[2-[2-[2-[[5-[4-[6-(dimethylamino)-1,3-benzothiazol-2-yl]-phenyl]pyridin-2-yl]amino]ethoxy]ethoxy]ethoxy]ethoxy]-ethoxy]ethoxy]-3-oxo-1H-isoindol-2-yl]piperidine-2,6-dione]
- Bmax [1]: 80%

Structure (SMILES): CN(C)c1ccc(-c2ccc(-c3nc4ccc(NCCOCCOCCOCCOCCOCCOc5ccc6c(c5)CN(C5CCC(=O)NC5=O)C6=O)cc4s3)cc2)cn1 (stereo not drawn) [Compound 160273, 3-[6-[2-[2-[2-[2-[2-[2-[[2-[4-[6-(dimethylamino)pyridin-3-yl]phenyl]-1,3-benzothiazol-6-yl]-amino]ethoxy]ethoxy]ethoxy]ethoxy]-ethoxy]ethoxy]-3-oxo-1H-isoindol-2-yl]piperidine-2,6-dione]
- Bmax [1]: 59%

Structure (SMILES): CN(C)c1ccc(-c2ccc(-c3nc4ccc(NCCOCCOc5ccc6c(c5)C(=O)N(C5CCC(=O)NC5=O)C6=O)cc4s3)cc2)cn1 (stereo not drawn) [Compound 160219, 2-[2,6-bis(oxo)piperidin-3-yl]-5-[2-[2-[[2-[4-[6-(dimethylamino)pyridin-3-yl]phenyl]-1,3-benzothiazol-6-yl]amino]ethoxy]ethoxy]isoindole-1,3-dione]
- Bmax [1]: 69%

Structure (SMILES): CN(C)c1ccc2nc(-c3ccc(-c4ccc(NCCOCCOCCOCCOCCOCCOc5ccc6c(c5)C(=O)N(C5CCC(=O)NC5=O)C6=O)nc4)cc3)sc2c1 (stereo not drawn) [Compound 160275, 2-[2,6-bis(oxo)piperidin-3-yl]-5-[2-[2-[2-[2-[2-[2-[[5-[4-[6-(dimethylamino)-1,3-benzothiazol-2-yl]phenyl]pyridin-2-yl]amino]ethoxy]ethoxy]-ethoxy]ethoxy]ethoxy]ethoxy]isoindole-1,3-dione]
- Bmax [1]: 96%

Structure (SMILES): CN(C)c1ccc2nc(-c3ccc(-c4ccc(NCCOCCN5C(=O)CCC(N6C(=O)c7ccc(O)cc7C6=O)C5=O)nc4)cc3)sc2c1 (stereo not drawn) [Compound 160703]
- Kd [2]: 100 nM
- IC50 [1]: 1000 nM
- Bmax [1]: =100%

Structure (SMILES): CN(C)c1ccc(-c2ccc(-c3nc4ccc(NCCOCCOCCOCCOCCOCCOc5ccc6c(c5)C(=O)N(C5CCC(=O)NC5=O)C6=O)cc4s3)cc2)cn1 (stereo not drawn) [Compound 159985, 2-[2,6-bis(oxo)piperidin-3-yl]-5-[2-[2-[2-[2-[2-[2-[[2-[4-[6-(dimethylamino)-pyridin-3-yl]phenyl]-1,3-benzothiazol-6-yl]amino]ethoxy]ethoxy]ethoxy]ethoxy]ethoxy]-ethoxy]isoindole-1,3-dione]
- Bmax [1]: 71%

Structure (SMILES): CN(C)c1ccc(-c2ccc(-c3cn4cc(OCCOCCN5C(=O)CCC(N6C(=O)c7ccc(O)cc7C6=O)C5=O)ccc4n3)cc2)c(F)n1 (stereo not drawn) [Compound 160570]
- Kd [2]: 360 nM
- IC50 [1]: 2260 nM
- Bmax [1]: =100%

Structure (SMILES): CN(C)c1ccc(-c2ccc(-c3cn4cc(OCCOCCOCCOCCOCCOCCOc5ccc6c(c5)C(=O)N(C5CCC(=O)NC5=O)C6=O)ccc4n3)cc2)c(F)n1 (stereo not drawn) [Compound 160744, 2-[2,6-bis(oxo)piperidin-3-yl]-5-[2-[2-[2-[2-[2-[2-[2-[4-[6-(dimethyl-amino)-2-fluoro-pyridin-3-yl]phenyl]imidazo[1,2-a]pyridin-6-yl]oxyethoxy]ethoxy]ethoxy]-ethoxy]ethoxy]ethoxy]isoindole-1,3-dione]
- Bmax [1]: 113%

Structure (SMILES): CN(C)c1ccc(-c2ccc(-c3nc4ccc(NCCOCCOc5ccc6c(c5)CN(C5CCC(=O)NC5=O)C6=O)cc4s3)cc2)cn1 (stereo not drawn) [Compound 160313, 3-[6-[2-[2-[[2-[4-[6-(dimethylamino)pyridin-3-yl]phenyl]-1,3-benzothiazol-6-yl]amino]ethoxy]ethoxy]-3-oxo-1H-isoindol-2-yl]piperidine-2,6-dione]
- Bmax [1]: 64%
- BBB penetration [3]: able to penetrate BBB in short period of time
- Kp ([3]; mouse, brain/plasma, read-out: brain/plasma ratio): ~0.31
- AUC(0-t) ([3]; mouse, Brain): 117 ng·h/mL
- Cmax ([3]; mouse, Brain): 111 ng/mL
- Tmax ([3]; mouse, Brain): 15 min
- half-life ([3]; mouse, Brain): 61.8 min
- AUC(0-t) ([3]; mouse, Plasma): 379 ng·h/mL
- half-life ([3]; mouse, Plasma): 27.6 min
